System: CHO (Chinese Hamster Ovaries) cells
Test: Cells viability test (MTT), cells on top of hydrogel
Format: cell-based
Experimental: To verify the ability of the hybrid hydrogels described herein to be used in biological applications, their biocompatibility was determined using an in vitro cell culture experiment. Three types of cells were cultivated on top of the hybrid hydrogels: CHO (Chinese Hamster Ovaries), fibroblasts and chondrocytes.
CHO, fibroblasts and chondrocytes cells were grown in Dulbecco's Modified
Eagle Medium (DMEM) supplemented with 10% fetal calf serum, 100 U/ml penicillin, 100 U/ml streptomycin, and 2 mmol/liter L-glutamine (all from Beit Haemeck, Israel). Cells were maintained at 37° C. in a humidified atmosphere containing 5% CO2. Subconfluent cultures were harvested by trypsinization, counted, and diluted in specific cells' media to form a cell concentration of 10^6 cells/ml. The gels swelled overnight with 0.1 ml DMEM. The next day, DMEM was removed and […] of the CHO cells (10^5 cells) were placed on top of the hydrogel. After 1, 3 and 7 days of incubation at 37° C. the viability of the cells was determined using an MTT assay.
The cell viability was analyzed 1, 3 and 7 days post seeding. Cells seeded as monolayers with PBS were used as control. Cell viability was analyzed using an MTT assay. […]

hyaluronic acid [HA]
viability, in words: high viability

From patent US10245351B2, “Malleable hydrogel hybrids made of self-assembled peptides and biocompatible polymers and uses thereof” (Technology Innovation Momentum Fund (Israel) Limited …, priority 2010, dated 2019)
